Test results taken from patent EP0543555A1, “Phosphorylated flavanoids in the treatment of viral diseases” (MERRELL DOW PHARMACEUTICALS INC., priority 1991, dated 1993).
Values joined by “and” are separate entries in the source; they are usually repeats but may differ in a detail not shown here. Equal values may be shown once. Read-outs that look alike come from different tables or passages of the source.

Columns and labels:
[1] = test system: Herpes type 2 strain HG52; assay: Herpes type 2 plaque reduction assay (Vero cells); type: cell-based; settings: for %: % of virus control
Source text: Cell Line: Vero Virus: Herpes type 2 strain HG52

HIV-1 = settings: for Mean Syncytial Counts Day 3 % / Mean Syncytial Counts Day 4 %: % of virus control; for Mean Syncytial Counts Day 4 %: 5760 min
Protocol: JM cells were infected with HIV-1 for 2 hours at room temperature. The cells were then washed and distributed into duplicate wells containing different concentrations of the test compound and incubated at 37°C. On days 3 and 4 the cells were observed and the syncytia counted and on day 4 the supernatant fluid was also harvested for detection of p24 viral core antigen using the Abbott EIA.

CMV = assay: Anti-CMV plaque reduction assay (AD169 strain, MRC 5 cell line); type: cell-based, cytomegalovirus (CMV); settings: for %: % of virus control
Protocol: Experiments were carried out whereby phosphorylated hesperidin was present at the following times of the virus (AD169 strain, MRC 5 cell line) growth cycle. • 1. During adsorption and after • 2. During adsorption, then not • 3. Only added after adsorption A virus control with no drug was present on each plate.

[2] = First trial, during adsorption and incubation, 10 µg/ml
[3] = First trial, during adsorption and incubation, 50 µg/ml
[4] = First trial, during adsorption and incubation, 100 µg/ml
[5] = First trial, during adsorption, 10 µg/ml
[6] = First trial, during adsorption, 50 µg/ml
[7] = First trial, during adsorption, 100 µg/ml
[8] = Second trial, during adsorption and incubation, 125 µg/ml
[9] = Second trial, during adsorption and incubation, 250 µg/ml
[10] = Second trial, during adsorption and incubation, 500 µg/ml
[11] = Second trial, during adsorption, 500 µg/ml
[12] = Second trial, incubation only, 125 µg/ml
[13] = Second trial, incubation only, 250 µg/ml
[14] = Second trial, incubation only, 500 µg/ml
[15] = First trial, added before and after adsorption, 31 µg/ml
[16] = Second trial, during and after adsorption, 31 µg/ml
[17] = Second trial, during and after adsorption, 62 µg/ml
[18] = Third trial, after adsorption only, 3.75 µg/ml
[19] = Third trial, after adsorption only, 7.5 µg/ml
[20] = Third trial, after adsorption only, 15 µg/ml
[21] = Third trial, after adsorption only, 31µg/ml
[22] = Third trial, after adsorption only, 62 µg/ml
[23] = Third trial, during adsorption only, 3.75 µg/ml
[24] = Third trial, during adsorption only, 7.5 µg/ml
[25] = Third trial, during adsorption only, 15 µg/ml
[26] = Third trial, during adsorption only, 31µg/ml
[27] = Third trial, during and after adsorption, 3.75 µg/ml
[28] = Third trial, during and after adsorption, 7.5 µg/ml
[29] = Third trial, during and after adsorption, 15 µg/ml
[30] = Third trial, during and after adsorption, 31µg/ml
[31] = Third trial, during and after adsorption, 62 µg/ml

## Phosphorylated Hesperidin
[1]; [2]
  No. of Plaques: 253 and 243
  No. of Plaques Average: 248
  %: 100%
[1]; [3]
  No. of Plaques: 112 and 132
  No. of Plaques Average: 122
  %: 54%
[1]; [4]
  No. of Plaques: 95 and 62
  No. of Plaques Average: 78.5
  %: 35%
[1]; [5]
  No. of Plaques: 211 and 231
  No. of Plaques Average: 221
  %: 98%
[1]; [6]
  No. of Plaques: 154 and 146
  No. of Plaques Average: 150
  %: 66%
[1]; [7]
  No. of Plaques: 187 and 144
  No. of Plaques Average: 166
  %: 73%
[1]; [8]
  No. of Plaques: 58 and 71
  No. of Plaques Average: 64.5
  %: 46%
[1]; [9]
  No. of Plaques: 11 and 10
  No. of Plaques Average: 10.5
  %: 7.5%
[1]; [10]
  No. of Plaques: None
  No. of Plaques Average: 0
  %: 0%
[1]; [11]
  No. of Plaques: 50 and 58
  No. of Plaques Average: 54
  %: 38%
[1]; [12]
  No. of Plaques: 50 and 61
  No. of Plaques Average: 55.5
  %: 39%
[1]; [13]
  No. of Plaques: 16 and 11
  No. of Plaques Average: 13.5
  %: 9.6%
[1]; [14]
  No. of Plaques: None
  No. of Plaques Average: 0
  %: 0%
HIV-1; Conc 0.1 µg/ml, 4320 min
  Mean Syncytial Counts Day 3 %: 100%
HIV-1; Conc 0.1 µg/ml
  Mean Syncytial Counts Day 4 %: 100%
HIV-1; Conc 0.3 µg/ml, 4320 min
  Mean Syncytial Counts Day 3 %: 100%
HIV-1; Conc 0.3 µg/ml
  Mean Syncytial Counts Day 4 %: 100%
HIV-1; Conc 1 µg/ml, 4320 min
  Mean Syncytial Counts Day 3 %: 100%
HIV-1; Conc 1 µg/ml
  Mean Syncytial Counts Day 4 %: 100%
HIV-1; Conc 3 µg/ml
  Mean Syncytial Counts Day 3: As VC
  Mean Syncytial Counts Day 3 %: 100%
  Mean Syncytial Counts Day 4 %: 100%
HIV-1; Conc 10 µg/ml
  Mean Syncytial Counts Day 3: 51
  Mean Syncytial Counts Day 4: As VC
  Mean Syncytial Counts Day 4 %: 100%
HIV-1; Conc 10 µg/ml, 4320 min
  Mean Syncytial Counts Day 3 %: 89%
HIV-1; Conc 30 µg/ml
  Mean Syncytial Counts Day 3: 9
  Mean Syncytial Counts Day 4: 45
  Mean Syncytial Counts Day 4 %: 48%
HIV-1; Conc 30 µg/ml, 4320 min
  Mean Syncytial Counts Day 3 %: 16%
HIV-1; Conc 100 µg/ml
  Mean Syncytial Counts Day 3: 0
  Mean Syncytial Counts Day 4: 5
  Mean Syncytial Counts Day 4 %: 5%
HIV-1; Conc 100 µg/ml, 4320 min
  Mean Syncytial Counts Day 3 %: 0%
CMV; [15]
  No. of Plaques: 27 and 20 and 24
  No. of Plaques Average: 24
  %: 9.9%
CMV; First trial, added before and after adsorption, 125 µg/ml
  No. of Plaques: No plaques
CMV; First trial, added before and after adsorption, 250 µg/ml
  No. of Plaques: totally blocked
CMV; Second trial, after adsorption only, 31 µg/m
  No. of Plaques: As virus control
CMV; Second trial, after adsorption only, 62 µg/ml
  No. of Plaques: As virus control
CMV; Second trial, after adsorption only, 125 µg/ml
  No. of Plaques: As virus control
CMV; Second trial, after adsorption only, 250 µg/ml
  No. of Plaques: None
CMV; Second trial, after adsorption only, 500 µg/ml
  No. of Plaques: None
CMV; [16]
  No. of Plaques: 35 and 40
  No. of Plaques Average: 32.5
  %: 17%
CMV; [17]
  No. of Plaques: 35 and 40
  No. of Plaques Average: 37.5
  %: 22%
CMV; Second trial, during and after adsorption, 125 µg/ml, estimate
  No. of Plaques: ~40 (estimate)
CMV; Second trial, during and after adsorption, 250 µg/ml
  No. of Plaques: None
CMV; Second trial, during and after adsorption, 500 µg/ml
  No. of Plaques: None
CMV; [18]
  No. of Plaques: As v.c.
  %: 100%
CMV; [19]
  No. of Plaques: As v.c
  %: 100%
CMV; [20]
  No. of Plaques: 120 125 131
  No. of Plaques Average: 125
  plaque size (remark in No. of Plaques cell): much smaller plaques
  %: 66%
CMV; [21]
  No. of Plaques: 119 125 128
  No. of Plaques Average: 124
  %: 65%
CMV; [22]
  No. of Plaques Average: 89
  plaque size (remark in No. of Plaques cell): smaller plaques
  %: 47%
CMV; [23]
  No. of Plaques: As v.c.
  %: 100%
CMV; [24]
  No. of Plaques: As v.c.
  No. of Plaques Average: 141
  %: 100%
CMV; [25]
  No. of Plaques: 148 140 135
  %: 74%
CMV; [26]
  No. of Plaques: 120 115 111
  No. of Plaques Average: 115
  plaque size (remark in No. of Plaques cell): much smaller plaques
  %: 61%
CMV; Third trial, during adsorption only, 62 µg/ml, MRC 5 cell line
  state of monolayer (printed in place of No. of Plaques): monolayer destroyed
CMV; [27]
  No. of Plaques: 128 125 121
  No. of Plaques Average: 125
  %: 66%
CMV; [28]
  No. of Plaques: 119 115 103
  No. of Plaques Average: 122
  %: 64%
CMV; [29]
  No. of Plaques Average: 76
  %: 40%
CMV; [30]
  No. of Plaques Average: 60
  %: 32%
CMV; [31]
  No. of Plaques Average: 48
  %: 25%
